Calls of active or inactive are those of the source. The rule behind the calls is not given here.

This note sets out measurements from ChEMBL document CHEMBL4616707, “Rationally Designed Covalent BCL6 Inhibitor That Targets a Tyrosine Residue in the Homodimer Interface” (ACS Med Chem Lett, 2020).

The subject of one test is SUD4. Description: Antiproliferative activity against human SU-DHL4 cells assessed as growth inhibition at 6.2 uM after 5 days by Celltiter-Glo assay. The test is classed as functional, cell-based. Background: ATP-based viability assays read luminescence as a measure of living cells.
Test [1] has as its target B-cell lymphoma 6 protein (Homo sapiens) (UniProt P41182). Description: Binding affinity to recombinant human BCL6 (48 to 66 residues) assessed as protein compound adduct formation via Tyr58 residue after 2 hrs by LC-MS/MS analysis.
Test [2] has the same target. Description: Covalent inhibition of human wild type BCL6 expressed in HEK293T cells transfected with eGFP assessed as rescue of BI-3802-induced BCL6 degradation at 5 uM incubated for 30 hrs followed by […] addition and measured after 5 hrs by flow cytometry based mCherry reporter gene analysis. The test is classed as cell-based. The note with it: HEK-293T. (In general: In flow cytometry, cells or beads pass a laser one at a time.)

`CNC(=O)COc1cc2cc(Nc3nc(NCc4cccc(S(=O)(=O)F)c4)ncc3Cl)cc(OC)c2n(C)c1=O`: the result (in the test on SUD4; in test [1]; in test [2]) was Active.
Take `O=C1Cc2cc(Nc3nc(NCc4cccc(S(=O)(=O)F)c4)ncc3Cl)ccc2N1`: the result in test [1] and in test [2] was Active.
On to `CNC(=O)COc1cc2cc(Nc3nc(NCc4cccc(S(C)(=O)=O)c4)ncc3Cl)cc(OC)c2n(C)c1=O`, for which the outcome with SUD4 was inactive.
